Usually Papp A→B stands for how fast a substance crosses the layer from the apical side. Higher therefore signals ready permeation. For orientation: microsomal CLint means the capacity of the preparation to metabolise the compound, expressed as a volume cleared per time. The low end stands for greater metabolic stability, the high end for faster metabolism. Broadly, the Papp is a coefficient for how fast a substance crosses the barrier. Lower therefore signals poor permeation. A word on the Papp B→A: it is how fast a substance crosses the layer from the basolateral side.

Each structure is given as a SMILES string.

The values below come from ChEMBL document CHEMBL1152295, “Novel 3,3-disubstituted pyrrolidines as selective triple serotonin/norepinephrine/dopamine reuptake inhibitors” (Bioorg Med Chem Lett, 2008).

System in the first data set: not listed separately
Put plainly: in vitro. The note with it: human, Caco-2.
Regarding `CCCC1(c2ccc3[nH]ccc3c2)CCNC1` (stereo not drawn), the Papp A→B at 10 µM was determined as 16.5 ×10⁻⁶ cm/s.
Turning to `Clc1ccc([C@]23CNC[C@H]2C3)cc1Cl` [AMITIFADINE], the apparent permeability from apical to basolateral (Papp A→B) at 10 µM was found to be 2.9 ×10⁻⁶ cm/s.

Staying with this data set, now noted: human, Caco-2, Papp.
In the case of `NC(=O)c1cc2cc(C3(Cc4ccccc4)CCNC3)ccc2[nH]1` (stereo not drawn), the Papp A→B at 10 µM was determined as 0.6 ×10⁻⁶ cm/s.
On the same count and under the same terms, under `CCCCC1(c2ccc3[nH]ccc3c2)CCNC1` (stereo not drawn) stands 9.4 ×10⁻⁶ cm/s; under `c1ccc(CC2(c3ccc4[nH]ccc4c3)CCNC2)cc1` (stereo in doubt; (+)-16) [5-(3-BENZYLPYRROLIDIN-3-YL)-1H-INDOLE (STRUCTURAL MIX)], 21 ×10⁻⁶ cm/s.
On the same count and under the same terms, under `CCOC(=O)c1cc2cc(C3(Cc4ccccc4)CCNC3)ccc2[nH]1` (stereo not drawn) stands 3.5 ×10⁻⁶ cm/s; under `CN(C)C(=O)c1cc2cc(C3(Cc4ccccc4)CCNC3)ccc2[nH]1` (stereo not drawn), 4 ×10⁻⁶ cm/s; under `c1ccc(CC2(c3ccc4[nH]ccc4c3)CCNC2)nc1` (stereo not drawn), 3.2 ×10⁻⁶ cm/s.
Consider `c1ccc(CC2(c3ccc4[nH]ncc4c3)CCNC2)cc1` (stereo not drawn), for which the Papp A→B at 10 µM was 10 ×10⁻⁶ cm/s.

System in the next data set: not listed separately
Description: in vitro. The conditions noted are these: human, liver microsomes. (Liver microsomes are a subcellular fraction often used to study metabolism.)
Consider `CCCC1(c2ccc3[nH]ccc3c2)CCNC1` (stereo not drawn), for which the microsomal CLint was 2.3 µL/min/mg.
The same measure, in the same setting: under `Clc1ccc([C@]23CNC[C@H]2C3)cc1Cl` [AMITIFADINE] stands 47 µL/min/mg.

Staying with this data set, now noted: human, liver microsomes, Stability.
Molecule `Cn1ccc2cc(C3(Cc4ccccc4)CCNC3)ccc21` (stereo not drawn) gave a microsomal CLint of 106 µL/min/mg.
`NC(=O)c1cc2cc(C3(Cc4ccccc4)CCNC3)ccc2[nH]1` (stereo not drawn) gave a microsomal CLint of 1.4 µL/min/mg.
On the same count and under the same terms, under `c1ccc(CC2(c3ccc4sccc4c3)CCNC2)cc1` (stereo not drawn) stands 198 µL/min/mg; under `CCCCC1(c2ccc3[nH]ccc3c2)CCNC1` (stereo not drawn), 38 µL/min/mg; under `Fc1ccc(CC2(c3ccc4[nH]ccc4c3)CCNC2)cc1` (stereo not drawn), 84 µL/min/mg.
On the same count and under the same terms, then `c1ccc(CC2(c3ccc4[nH]ccc4c3)CCNC2)cc1` (stereo in doubt; (+)-16) [5-(3-BENZYLPYRROLIDIN-3-YL)-1H-INDOLE (STRUCTURAL MIX)], with 154 µL/min/mg; and `COc1cccc(CC2(c3ccc4[nH]ccc4c3)CCNC2)c1` (stereo not drawn), with 77 µL/min/mg; and `CCOC(=O)c1cc2cc(C3(Cc4ccccc4)CCNC3)ccc2[nH]1` (stereo not drawn), with 47.8 µL/min/mg.
Same read-out and setting: then `CN(C)C(=O)c1cc2cc(C3(Cc4ccccc4)CCNC3)ccc2[nH]1` (stereo not drawn), with 12.8 µL/min/mg; and `c1ccc(CC2(c3ccc4[nH]ccc4c3)CCNC2)nc1` (stereo not drawn), with 86 µL/min/mg.
In turn, `c1ccc(CC2(c3ccc4[nH]ncc4c3)CCNC2)cc1` (stereo not drawn) displayed a microsomal CLint of 28 µL/min/mg.

A further data set concerns Caco-2.
Experiment: not given
The conditions noted are these: human, caco-2, 10 µM.
`c1ccc(CC2(c3ccc4[nH]ccc4c3)CCNC2)cc1` (stereo in doubt; 16) [5-(3-BENZYLPYRROLIDIN-3-YL)-1H-INDOLE (STRUCTURAL MIX)] came in with a Papp of 14 ×10⁻⁶ cm/s.

Another data set concerns Caco-2.
Experiment: not given
The note with it: human, caco-2, 10 µM. This is another data set of the same source.
Regarding `c1ccc(CC2(c3ccc4[nH]ccc4c3)CCNC2)cc1` (stereo in doubt; 16) [5-(3-BENZYLPYRROLIDIN-3-YL)-1H-INDOLE (STRUCTURAL MIX)], the Papp is 17 ×10⁻⁶ cm/s.

System in the next data set: not listed separately
Description: in vitro. The conditions noted are these: human, Caco-2. This is another data set of the same source.
`CCCC1(c2ccc3[nH]ccc3c2)CCNC1` (stereo not drawn) gave a Papp B→A at 10 µM of 24 ×10⁻⁶ cm/s.
The same measure, in the same setting: under `Clc1ccc([C@]23CNC[C@H]2C3)cc1Cl` [AMITIFADINE] stands 2.1 ×10⁻⁶ cm/s.

The same data set, now with this note: human, Caco-2, Papp.
With `NC(=O)c1cc2cc(C3(Cc4ccccc4)CCNC3)ccc2[nH]1` (stereo not drawn), the Papp B→A at 10 µM worked out at 17 ×10⁻⁶ cm/s.
The same measure, in the same setting: under `CCCCC1(c2ccc3[nH]ccc3c2)CCNC1` (stereo not drawn) stands 19 ×10⁻⁶ cm/s.
Same read-out and setting: under `c1ccc(CC2(c3ccc4[nH]ccc4c3)CCNC2)cc1` (stereo in doubt; (+)-16) [5-(3-BENZYLPYRROLIDIN-3-YL)-1H-INDOLE (STRUCTURAL MIX)] stands 9.9 ×10⁻⁶ cm/s.
With `CCOC(=O)c1cc2cc(C3(Cc4ccccc4)CCNC3)ccc2[nH]1` (stereo not drawn), the Papp B→A at 10 µM came to 3.4 ×10⁻⁶ cm/s.
Still for that read-out and setting: under `CN(C)C(=O)c1cc2cc(C3(Cc4ccccc4)CCNC3)ccc2[nH]1` (stereo not drawn) stands 24 ×10⁻⁶ cm/s; under `c1ccc(CC2(c3ccc4[nH]ccc4c3)CCNC2)nc1` (stereo not drawn), 18 ×10⁻⁶ cm/s.
On the same count and under the same terms, under `c1ccc(CC2(c3ccc4[nH]ncc4c3)CCNC2)cc1` (stereo not drawn) stands 22 ×10⁻⁶ cm/s.
